Values of other authors as cited in patent US6797829B1, “Synthesis of a novel paramagnetic amino derivative (epm-5) for labelling chemical and biological macromolecules” (Conselho Nacional de Desenvolvimento Cientifico e …, priority 1999, dated 2004).
Where two headings read alike, the source gives them in different places.

pKa of the amine group (in free state): 8
pKa of the amine group (when bound to the N-terminal portion of a peptide chain): about 5.5
SMILES: CC1(C)CC(N)(C(=O)O)CC(C)(C)N1[O] [Toac, 2,2,6,6tetramethylpiperidine-1-oxyl-4-amine-4-carboxylic acid]
